{"source": "patent US20260144786A1", "about": "“METHOD FOR TREATING MENSTRUAL CYCLE DISORDERS” (Guangzhou HuTong Youwu Biotechnology Co., Ltd, priority 2023, published 2026)", "key": {"[1]": {"experiment": "Use of PQQ for preventing menstrual cycle disorders (oral tablets, six months, vitamin C control)", "type": "in vivo, human", "conditions": "preliminary experimental data", "procedure": "(§1) The criteria for menstrual cycle disorders are as follows: 1. Early menstruation: Early menstruation refers to a shortened menstrual cycle that is shorter than 21 days and occurs for more than two consecutive cycles. It is a biphasic basal body temperature of ovulatory functional uterine bleeding, a short follicular phase of only 7 or 8 days; or a luteal phase of less than 10 days, or a temperature rise of less than 0.5° C. 2. Delayed menstruation: Menstruation is missed for more than 7 days, or even 40-50 days, and symptoms appear for more than 2 menstrual cycles. […] 3. Prolonged menstruation: The symptoms of this type of menstrual disorder are mainly a normal menstrual cycle but a prolonged menstrual period, lasting more than 7 days, or even up to 2 weeks before ending. Those with inflammation usually experience lower abdominal pain, which is aggravated during menstruation. Usually, the amount of leucorrhea is heavy, yellow or yellowish-white, thick, and odorous. Those with incomplete corpus luteum atrophy are also accompanied by heavy menstruation; those with prolonged endometrial repair still experience a small amount of persistent vaginal bleeding after the normal menstrual period. 4. Irregular menstruation: Menstruation is early or late, and the cycle is shorter than 21 days or longer than 35 days. No endometriosis. […]"}, "[2]": {"experiment": "Use of PQQ for ameliorating or treating menstrual cycle disorders (oral tablets, six months, vitamin C control)", "type": "in vivo, human", "conditions": "preliminary experimental data", "procedure": "as §1"}}}
{"smiles": "O=C(O)c1cc(C(=O)O)c2c(n1)C(=O)C(=O)c1cc(C(=O)O)[nH]c1-2", "note": "[PQQ, 4,5-dioxo-1H-pyrrolo[2,3-f]quinoline-2,7,9-tricarboxylic acid]", "values": [{"measurement": "effect on preventing menstrual cycle disorders compared with a placebo", "setting": "[1]", "value": "significant effect"}, {"measurement": "effect on alleviating or treating menstrual cycle disorders compared with a placebo", "setting": "[2]", "value": "significant effect"}]}
